Structures can show the parent of a compound that is named as a salt. Where two headings read alike, the source gives them in different places.
What was measured:
[1] = target: T1, recombinant rat 5-HT7 receptor (Rattus norvegicus, UniProt P32305); test: Determination of Kb at 5-HT7 receptor, pCRE-Luc reporter gene assay in CHO cells; assay type: cell-based
T1 construct: expressed in transfected cells

[2] = target: cloned human SERT receptor (Homo sapiens, UniProt P31645); test: Determination of Ki at SERT receptor (SPA binding, [3H]-Citalopram); conditions: HEK293 recombinant cells, [3H]-Citalopram 2 nM, read-out: Ki hSERT
Protocol: (§1) Compounds were tested according to the following procedure.
(§2) • Receptor source: Recombinant mammalian cells (HEK293) • Radioligand: [^3H]-Citalopram (80.8 Ci/mmol) • Final ligand concentration: 2 nM • Non-specific determinant: 0.1 mM Venlafaxine • Reference compound: Venlafaxine • Positive control: Venlafaxine Incubation Conditions:
Reactions were carried out in buffer with pH 7.4 containing 50 mM Tris-HCl, 150 mM NaCl, 5 mM KCl and scintillation proximity assay (SPA) beads (0.1 mg/well) for 3 h at r.t. Radioactivity proximal to SPA beads was determined by scintillation proximity assay and compared to the control values in order to ascertain any interactions of the test compound(s) with cloned human SERT receptor binding site.
Reference: Journal of Pharmacology and Experimental Therapeutics, 1987, 242 (1), 364-371.

[3] = target: T2, cloned human 5-HT2A receptor (Homo sapiens, UniProt P28223); test: Determination of Ki at 5-HT2A receptor (radioligand binding, [3H]-Ketanserine); conditions: CHO-K1 recombinant cells; [3H]-Ketanserine 1.25 nM; read-out: Ki h5-HT2A
T2 construct: expressed in transfected cells; host or cells: CHO-K1
Protocol: as §1
as §2, with “(CHO-K1)” for “(HEK293)”, “[^3H]-Ketanserine (41.9” for “[^3H]-Citalopram (80.8”, “1.25” for “2”, “1-Napthyl piperazine (1-NP)” for “Venlafaxine”
(§3) Reactions were carried out in buffer with pH 7.4 containing 50 mM Tris-HCl, 4 mM CaCl2), 0.1% Ascorbic acid for 1 h at r.t. The reaction was terminated by rapid vacuum filtration onto the glass fiber filters. Radioactivity trapped onto the filters was determined and compared to the control values in order to ascertain any interactions of the test compound(s) with cloned human 5-HT2A receptor binding site.

[4] = target: T3, hD2S (cloned human dopamine D2S receptor) (Homo sapiens, UniProt P14416); test: Determination of Ki at D2S receptor (radioligand binding, [3H]-Raclopride); conditions: CHO-K1 recombinant cells; [3H]-Raclopride 4 nM; read-out: Ki hD2S
T3 construct: expressed in transfected cells; host or cells: CHO-K1
Protocol: as §1
• Receptor source: Recombinant mammalian cells (CHO-K1) • Radioligand: [^3H]-Raclopride (80.8 Ci/mmol) • Final ligand concentration: 4 nM • Non-specific determinant: 0.1 mM Haloperidol • Reference compound: Haloperidol • Positive control: Haloperidol Incubation Conditions:
as §3, with “Tris-HCl, 120” for “Tris-HCl, 4”, “mM NaCl, 5 mM KCl, 5 mM MgCl2, 1 mM EDTA” for “mM CaCl2), 0.1% Ascorbic acid”, “for 2” for “for 1”, “human dopamine […]” for “human 5-HT2A”

[5] = target: T4, cloned human 5-HT1A receptor (Homo sapiens, UniProt P08908); test: Determination of Ki at 5-HT1A receptor (radioligand binding, [3H]-8-Hydroxy DPAT); conditions: HEK293-EBNA recombinant cells; [3H]-8-Hydroxy DPAT 0.8 nM; read-out: Ki h5-HT1A
T4 construct: expressed in transfected cells; host or cells: HEK293-EBNA
T4 sequence (P08908 1-422): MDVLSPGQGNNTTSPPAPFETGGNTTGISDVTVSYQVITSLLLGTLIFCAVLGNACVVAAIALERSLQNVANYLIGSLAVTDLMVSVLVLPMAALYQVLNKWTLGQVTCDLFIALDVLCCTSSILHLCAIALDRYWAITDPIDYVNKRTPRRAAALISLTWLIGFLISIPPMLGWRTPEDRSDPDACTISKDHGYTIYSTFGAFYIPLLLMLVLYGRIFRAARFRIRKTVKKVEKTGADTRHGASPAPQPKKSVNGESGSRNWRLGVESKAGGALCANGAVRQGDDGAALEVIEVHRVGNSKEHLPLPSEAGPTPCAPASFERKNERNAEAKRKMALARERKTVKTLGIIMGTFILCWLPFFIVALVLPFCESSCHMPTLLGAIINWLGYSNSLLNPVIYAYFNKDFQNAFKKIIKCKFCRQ
Protocol: as §1
• Receptor source: Recombinant mammalian cells (HEK293-EBNA) • Radioligand: [^3H]-8-Hydroxy DPAT (200 Ci/mmol) • Final ligand concentration: 0.8 nM • Non-specific determinant: 0.1 mM U92016A • Reference compound: U92016A • Positive control: U92016A Incubation Conditions:
as §3, with “Tris-HCl, 0.5” for “Tris-HCl, 4”, “mM EDTA, 10 mM MgSO4,” for “mM CaCl2),”, “for 2” for “for 1”, “human 5-HT1A” for “human 5-HT2A”

[6] = target: T1, recombinant rat 5-HT7 receptor; test: Determination of Kb at 5-HT7 receptor, pCRE-Luc reporter gene assay in CHO cells; assay type: cell-based; remark: listed apart in the source
Protocol: A stable CHO cell line expressing recombinant rat 5-HT7 receptor and pCRE-Luc reporter system was used for cell-based assay. The assay offers a non-radioactive based approach to determine binding of a compound to GPCRs. In this specific assay, the level of intracellular cAMP which is modulated by activation or inhibition of the receptor is measured. The recombinant cells harbor luciferase reporter gene under the control of cAMP response element.
The above cells were grown in 96 well clear bottom white plates in Hams F12 medium containing 10% fetal bovine serum (FBS). Prior to the addition of compounds or standard agonist, cells were serum starved overnight. Increasing concentrations of test compound were added along with 1 μM of serotonin in Opti-MEM medium to the cells. The incubation was continued at 37° C. in CO2 incubator for 4 hours. Medium was removed and cells were washed with phosphate buffered saline. The cells were lysed and luciferase activity was measured in a Luminometer. Luminescence units were plotted against the compound concentrations using GraphPad Prism software. EC50 values of the compounds were defined as the concentration required in reducing the luciferase activity by 50%. The Kb values were calculated by feeding the concentration of agonist used in the assay and its EC50 value in the same software.

Male Sprague Dawley rats = test: Amphetamine-induced hyperlocomotion; assay type: in vivo, rat; conditions: 3 mg/kg, p.o., dosed 30 min prior to trial
Protocol: Male Sprague Dawley rats of 230-280 g body weight were used. Rats were weighed and randomized according to their body weights. Following day, the rats were brought to the laboratory 1 h prior to test. In the morning session, rats were habituated to open field arena for 15 min. Test compound/vehicle and amphetamine/vehicle were administered 30 min prior to the trial. After the post-dose interval, rats were placed in the open field and locomotion was recorded for a period of 15 min. Amphetamine-induced hyperlocomotion models positive symptoms of schizophrenia.

[7] = Rodent brain penetration study; assay type: in vivo; conditions: rat, brain/plasma, po, fed male Wistar rats, 3 mg/kg p.o., mean ± S.D, n = 3, read-out: Rat Brain Penetration (Cbrain/Cplasma) at 3 mg/kg, p.o. @ 1 h
Protocol: Male Wistar rats (260±40 g) were used as experimental animals. Three animals were housed in each cage. Animals were given water and food ad libitum throughout the experiment and maintained on a 12 h light/dark cycle.
Brain penetration was determined in discrete manner in rats. One day prior to dosing, male Wistar rats were acclimatized and randomly grouped according to their body weight. At each time point (0.50, 1 and 2 h), n=3 animals were used.
The test compounds were suitably preformulated and administered orally at (free base equivalent) 3 mg/kg. Blood samples were removed via cardiac puncture under isoflurane anesthesia. The animals were sacrificed to collect brain tissue. Plasma was separated and brain samples were homogenized. Plasma and brain homogenates were stored frozen at −20° C. until analysis. The concentrations of the test compounds in plasma and brain were determined using LC-MS/MS method.
The test compounds were quantified in plasma and brain homogenate by qualified LC-MS/MS method using suitable extraction technique in the calibration range of 1-500 ng/mL. Study samples were analyzed using calibration samples in the batch and quality control samples spread across the batch. Extent of brain-plasma ratio (Cbrain/Cplasma) was calculated.

[8] = Rodent pharmacokinetic study; assay type: in vivo, Male Wistar rats; conditions: rat, plasma, mean ± S.D, n = 3; for bioavailability: oral 3 mg/kg vs intravenous 1 mg/kg, read-out: F (Bioavailability)
Protocol: Male Wistar rats (260±50 g) were used as experimental animals. Animals were housed individually in polypropylene cage. Two days prior to study, male Wistar rats were anesthetized with isoflurane for surgical placement of jugular vein catheter. Rats were randomly divided for oral (3 mg/kg) and intravenous (1 mg/kg) dosing (n=3/group) and fasted overnight before oral dosing (p.o.). However, food and water were provided ad libitum to the rats allocated for intravenous dosing.
At pre-determined time points, blood samples were collected through jugular vein and replenished with an equivalent volume of normal saline. Collected blood was transferred into a labeled eppendorf tube containing 10 μL of heparin as an anticoagulant. Typically blood samples were collected at 0.08, 0.25, 0.5, 1, 2, 4, 6, 8, and 24 h post dose. Blood samples were centrifuged at 4000 rpm for 10 min. Plasma was separated and stored frozen at −80° C. until analysis. The concentrations of the test compounds were quantified in plasma by qualified LC-MS/MS method using suitable extraction technique. The test compounds were quantified in the calibration range around 1-1000 ng/mL in plasma. Study samples were analyzed using calibration samples in the batch and quality control samples spread across the batch.
Pharmacokinetic parameters Cmax, AUCt, t1/2. Clearance and Bioavailability (F) were calculated using standard non-compartmental model by using Phoenix WinNonlin 6.0.4 version software package.

Rats = test: Tardive dyskinesia test (vacuous chewing movements and tongue protrusions); assay type: in vivo, rat; conditions: 38 mg/kg, i.m. single dose, scored weekly for 4 weeks
Protocol: Rats weighing 200-230 g were acclimatized to the plexiglass observation cages (30×20×30 cm) equipped with mirrors for 5 min. After acclimatization, basal vacuous chewing movements (VCMs) and tongue protrusions (TPs) of the rats were quantified manually for 5 min. Rats were randomized based on the basal readings. Rats received a single dose of sesame oil (vehicle treatment) or haloperidol decanoate (38 mg/kg, i.m. positive control). Example-2, 10 mg/kg, p.o. ([…]) was administered for 4 weeks. VCMs and TPs were scored on weekly basis for 4 weeks. Tardive dyskinesia is a side effect of antipsychotic medications.

dopamine receptor = test: Reserpine-induced dihydroxyphenylalanine (DOPA) accumulation assay in rat striatum; assay type: in vivo; conditions: apomorphine 0.1 mg/kg, s.c., rat, reserpine 5.0 mg/kg
Protocol: Reserpine (5.0 mg/kg, s.c.) was injected, after which rats were fasted for 18 h before sacrifice. […] Each rat was sacrificed and the striatum was dissected out of the whole brain on ice. Each striatum was weighed and homogenized individually in buffer containing 0.01 N hydrochloric acid and 0.2 mg/ml L-cysteine. Supernatants were subjected for quantification of DOPA using HPLC coupled to electrochemical detector.

[9] = intravenous (bolus) 1 mg/kg, male Wistar rats
[10] = oral (gavage) 3 mg/kg, fasted male Wistar rats

T3 sequence (P14416 1-414 isoform P14416-2): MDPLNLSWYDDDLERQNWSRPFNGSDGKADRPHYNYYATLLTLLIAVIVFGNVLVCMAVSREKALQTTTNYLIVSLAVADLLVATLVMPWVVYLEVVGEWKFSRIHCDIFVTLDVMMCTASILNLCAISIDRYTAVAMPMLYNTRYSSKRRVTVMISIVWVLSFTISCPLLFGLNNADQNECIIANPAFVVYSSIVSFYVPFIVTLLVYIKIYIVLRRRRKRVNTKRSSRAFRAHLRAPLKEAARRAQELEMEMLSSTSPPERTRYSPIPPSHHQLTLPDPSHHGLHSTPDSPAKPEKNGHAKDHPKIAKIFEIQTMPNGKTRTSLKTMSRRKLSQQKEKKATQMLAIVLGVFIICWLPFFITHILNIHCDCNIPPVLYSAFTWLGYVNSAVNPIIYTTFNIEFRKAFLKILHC
T1 sequence (P32305 whole entry): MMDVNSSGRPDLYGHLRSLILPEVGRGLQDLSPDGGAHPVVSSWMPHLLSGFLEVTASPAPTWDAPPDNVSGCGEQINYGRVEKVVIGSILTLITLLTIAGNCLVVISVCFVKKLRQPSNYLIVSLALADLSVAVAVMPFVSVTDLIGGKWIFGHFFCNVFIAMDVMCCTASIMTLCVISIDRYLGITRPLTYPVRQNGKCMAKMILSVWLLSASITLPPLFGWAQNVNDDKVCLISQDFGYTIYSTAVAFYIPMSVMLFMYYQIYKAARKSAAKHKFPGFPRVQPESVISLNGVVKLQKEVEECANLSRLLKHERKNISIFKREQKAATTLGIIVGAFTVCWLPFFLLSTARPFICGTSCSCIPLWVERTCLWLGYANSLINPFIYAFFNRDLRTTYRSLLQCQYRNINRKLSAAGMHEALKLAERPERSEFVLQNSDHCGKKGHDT
T2 sequence (P28223 whole entry): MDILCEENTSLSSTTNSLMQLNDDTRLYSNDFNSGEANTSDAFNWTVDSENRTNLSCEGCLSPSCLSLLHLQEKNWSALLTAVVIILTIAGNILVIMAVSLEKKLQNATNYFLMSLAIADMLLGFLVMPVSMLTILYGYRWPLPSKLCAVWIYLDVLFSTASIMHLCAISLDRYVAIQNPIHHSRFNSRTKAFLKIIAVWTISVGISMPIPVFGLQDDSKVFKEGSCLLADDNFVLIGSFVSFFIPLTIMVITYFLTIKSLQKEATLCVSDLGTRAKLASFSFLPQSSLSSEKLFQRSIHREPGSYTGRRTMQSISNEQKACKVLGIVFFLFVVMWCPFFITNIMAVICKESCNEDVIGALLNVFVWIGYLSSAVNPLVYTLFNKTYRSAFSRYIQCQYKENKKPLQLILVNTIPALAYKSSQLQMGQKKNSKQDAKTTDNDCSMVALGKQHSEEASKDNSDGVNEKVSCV
Sequence of cloned human SERT receptor (P31645 whole entry): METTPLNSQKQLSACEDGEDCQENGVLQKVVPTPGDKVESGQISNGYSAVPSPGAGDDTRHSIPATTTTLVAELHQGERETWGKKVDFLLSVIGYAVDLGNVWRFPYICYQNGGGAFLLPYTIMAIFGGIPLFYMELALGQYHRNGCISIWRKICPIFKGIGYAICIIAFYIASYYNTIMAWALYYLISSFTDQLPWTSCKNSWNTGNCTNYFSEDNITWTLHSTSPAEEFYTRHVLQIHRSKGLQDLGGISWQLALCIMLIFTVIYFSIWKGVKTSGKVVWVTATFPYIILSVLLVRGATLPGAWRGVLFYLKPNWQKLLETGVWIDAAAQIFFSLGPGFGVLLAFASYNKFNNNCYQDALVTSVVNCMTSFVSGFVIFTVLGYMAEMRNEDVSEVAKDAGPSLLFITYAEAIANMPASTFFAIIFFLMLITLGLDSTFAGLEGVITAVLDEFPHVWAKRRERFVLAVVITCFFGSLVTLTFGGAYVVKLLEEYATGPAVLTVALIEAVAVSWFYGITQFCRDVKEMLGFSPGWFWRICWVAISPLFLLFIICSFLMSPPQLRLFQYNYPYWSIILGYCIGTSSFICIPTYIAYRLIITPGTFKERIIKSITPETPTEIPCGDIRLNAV

Compound | Inference, tardive dyskinesia test (VCMs and TPs vs vehicle group) (Rats) | change in reserpine-induced DOPA accumulation in striatum (dopamine receptor) | agonist activity at rat recombinant 5-HT7 receptor [1] | Ki [2] [µM] | Ki [3] [nM] | Ki [4] [nM] | Ki [5] [nM] | antagonistic activity at rat recombinant 5-HT7 receptor ([6]; pCRE-Luc reporter gene assay) | Kb ([6]; rat receptor, with 1 μM serotonin, luciferase readout, read-out: Kb at 5-HT7 receptor) [nM] | Inference, amphetamine antagonism (hyperlocomotion) (Male Sprague Dawley rats) | Ki ([2]; cells printed in μM) [µM] | Kp at 1 h [7] | AUC(0-t) [8, 9] [ng·h/mL] | clearance [8, 9] [mL/min/kg] | half-life [8, 9] [h] | bioavailability ([8]; male Wistar rats) [%] | AUC(0-t) [8, 10] [ng·h/mL] | Cmax [8, 10] [ng/mL] | half-life [8, 10] [h]
O=C1C[C@@H]2COCCN2C(=O)N1CCCCN1CCN(c2nsc3ccccc23)CC1 [Example 18, 7-[4-(4-Benzo[d]isothiazol-3-yl-piperazin-1-yl)-butyl]-tetrahydro-pyrimido[6,1-c][1,4]oxazine-6,8-dione oxalate] |  |  | no detectable agonist activity | 1.74 | 4.2 | 6.5 | 0.8 | antagonistic activity | 1 |  |  |  |  |  |  |  |  |  | 
O=C1C[C@H]2CCCN2C(=O)N1C[C@H]1CCCC[C@H]1CN1CCN(c2nsc3ccccc23)CC1 [Example 27, 2-[2-(4-Benzo[d]isothiazol-3-yl-piperazin-1-ylmethyl)-cyclohexylmethyl]-tetrahydro-pyrrolo[1,2-c]pyrimidine-1,3-dione oxalate] |  |  |  |  | 2 | 0.2 | 4.7 |  |  | Active | > 10 | 1.21 ± 0.13 | 360 ± 10 | 45 ± 1.3 | 2.4 ± 0.4 | 16 ± 8 | 173 ± 92 | 186 ± 109 | 1.8 ± 0.1
O=C1C[C@H]2CCCN2C(=O)N1C[C@H]1CCCC[C@H]1CN1CCC(c2noc3cc(F)ccc23)CC1 [Example 29, 2-{2-[4-(6-Fluoro-benzo[d]isoxazol-3-yl)-piperidin-1-ylmethyl]-cyclohexylmethyl}-tetrahydro-pyrrolo[1,2-c]pyrimidine-1,3-dione oxalate] |  |  |  |  | 0.8 | 0.2 | 10 |  |  |  | > 10 | 2.73 ± 0.23 | 291 ± 17 | 57 ± 3 | 1 ± 0.1 | 4.6 ± 2 | 40 ± 15 | 37 ± 14 | 0.9 ± 0.1

Now from value to compound, other results behind:

Inference, tardive dyskinesia test (VCMs and TPs vs vehicle group) (Rats) | change in reserpine-induced DOPA accumulation in striatum (dopamine receptor) | Compound | agonist activity at rat recombinant 5-HT7 receptor [1] | Ki [2] [µM] | Ki [3] [nM] | Ki [4] [nM] | Ki [5] [nM] | antagonistic activity at rat recombinant 5-HT7 receptor ([6]; pCRE-Luc reporter gene assay) | Kb ([6]; rat receptor, with 1 μM serotonin, luciferase readout, read-out: Kb at 5-HT7 receptor) [nM] | Inference, amphetamine antagonism (hyperlocomotion) (Male Sprague Dawley rats) | Ki ([2]; cells printed in μM) [µM] | Kp at 1 h [7] | AUC(0-t) [8, 9] [ng·h/mL] | clearance [8, 9] [mL/min/kg] | half-life [8, 9] [h] | bioavailability ([8]; male Wistar rats) [%] | AUC(0-t) [8, 10] [ng·h/mL] | Cmax [8, 10] [ng/mL] | half-life [8, 10] [h]
Increased number of VCMs and TPs |  | CCCCCCCCCC(=O)OC1(c2ccc(Cl)cc2)CCN(CCCC(=O)c2ccc(F)cc2)CC1 [Haloperidol decanoate, reference compound] |  |  |  |  |  |  |  |  |  |  |  |  |  |  |  |  | 
 | significant decrease | CN1CCc2cccc3c2[C@H]1Cc1ccc(O)c(O)c1-3 [apomorphine, reference compound] |  |  |  |  |  |  |  |  |  |  |  |  |  |  |  |  | 

From patent publication US12391698B2, “Substituted piperidines and piperazines and methods for the treatment of CNS disorders” (SUVEN LIFE SCIENCES LIMITED, priority 2022, dated 2025)
